≈ marks a conversion by molar mass, not a printed value. Like-named read-outs stand apart in the source and are kept apart here. One block for each compound: values may come before it.
Key:
[1] = system: Marble Burying Activity in Mice; details: literature (Spooren 2000; Nicolas 2006); cited from earlier work
mGluR4 = mGluR4 (Homo sapiens, UniProt Q14833); details: cited from earlier work
[2] = system: N-methyl-D-aspartate (NMDA) receptor; details: at higher concentrations; cited from earlier work
[3] = Mouse PO PK (plasma and brain concentration); format: in vivo; details: Mouse PO 10 mg/kg; for concentration at 0.25 h / concentration at 0.5 h / concentration at 3 h / concentration at 1 h: mouse, po, 10 mg/kg
From the text: (§1) Additional physicochemical and pharmacological data are provided below in Tables 2-4 for Test Compounds 1 and 2 (Compounds […] and (2) as described herein).

Mouse BHB = format: in vitro ADME
From the text: as §1

Human PPB = format: in vitro ADME
From the text: as §1

Permeability/efflux = format: in vitro ADME; details: Table 2, Permeability/efflux
From the text: as §1

[4] = Solubility in SGF and FaSSIF; format: physicochemical
From the text: as §1

mGluR5 = target: T1, mGluR5 (Rattus norvegicus, UniProt P31424); experiment: mGluR5 IC50 / NAM profile of Tables 2 and 4; format: cell-based; details: Table 2, line under mGluR5 IC50
T1 construct: expressed in transfected cells
Method: Human embryonic kidney (HEK) cells transfected with rat or human mGluR5 were plated in clear bottom assay plates for assay in a Functional Drug Screening System (FDSS). The cells were loaded with a Ca2+-sensitive fluorescent dye (e.g., Fluo-4), and the plates were washed and placed in the FDSS instrument. Test compound was applied to cells 3 seconds after baseline readings were taken. Cells were incubated with the test compounds for 140 seconds and then stimulated with an EC20 concentration of an mGluR5 agonist (e.g., glutamate, 3,5-dihydroxyphenylglycine, or quisqualate); 60-80 seconds later an EC80 concentration of agonist was added and readings taken for an additional 40 seconds. Data were collected at 1 Hz. […] Concentration response curves were generated using a four parameter logistical equation.

[5] = system: Marble Burying Activity in Mice; experiment: Inhibition of marble burying in mice (model of anxiolytic behavior); format: in vivo; details: WT and Fmrl KO C57BL/6J mice
Method: It is well known that mice will bury foreign objects such as glass marbles in deep bedding (Deacon, R. M. J. Nature Protocols 2006, 1, 122-124). […] These facts along with the relative convenience of this assay make it a useful in vivo screening tool.
Doses of compound were suspended in vehicle (10% Tween 80 for intraperitoneal dosing and 0.5% methylcellulose for oral dosing), vortexed vigorously, heated gently with a Master Heat Gun (Master Appliance Corp., Racine, Wis.), and sonicated at 37° C. for 30 minutes. The pH was checked using 0-14 EMD strips and adjusted to approximately 7. All doses were administered at approximately 10 mL/kg.
Studies were conducted using male Harlan CD-1 mice (Harlan Sprague Dawley, Indianapolis, Ind.), weighing 30 to 35 grams. Subjects were housed in a large colony room under a 12 hour light/dark cycle (lights on at 6:00 a.m.) with food and water provided ad libitum. Test sessions were performed between 10:00 a.m. and 4:00 p.m. All dose groups consisted of ≧10 mice. All experiments were conducted in accordance with the National Institute of Health regulations of animal care covered in Principles of Laboratory Animal Care (National Institutes of Health publication 85-23, revised 1985) and were approved by the Institutional Animal Care and Use Committee.
Plexiglass cages (32×17×14 cm) were arranged on top of a large, round table. Mice were transported from the colony room to the testing room and allowed to habituate for 30 minutes. […] The novel compound and comparator were evaluated in a counterbalanced design, in which all doses of compounds were tested in each session. […] Clear, perforated plastic lids were set on top of each cage and the amount of marble burying was recorded over a 30 minute interval. The mice were then removed from the cages and the number of buried marbles was counted using the criteria of greater than ⅔ covered by bedding. […]
The data for the dose-response studies were analyzed by a between-group analysis of variance. […]

elevated plus maze = experiment: Elevated plus maze; format: in vivo; details: 30 mg/kg
Method: Test compounds (1) and (2) were administrated at the 10 mg/kg and 30 mg/kg doses described in this figure. […] Prospective In Vivo Effects

cytochrome P450 1A2 = target: T2, cytochrome P450 1A2 (Homo sapiens, UniProt P05177); details: cited from earlier work
T2 sequence (P05177 1-516): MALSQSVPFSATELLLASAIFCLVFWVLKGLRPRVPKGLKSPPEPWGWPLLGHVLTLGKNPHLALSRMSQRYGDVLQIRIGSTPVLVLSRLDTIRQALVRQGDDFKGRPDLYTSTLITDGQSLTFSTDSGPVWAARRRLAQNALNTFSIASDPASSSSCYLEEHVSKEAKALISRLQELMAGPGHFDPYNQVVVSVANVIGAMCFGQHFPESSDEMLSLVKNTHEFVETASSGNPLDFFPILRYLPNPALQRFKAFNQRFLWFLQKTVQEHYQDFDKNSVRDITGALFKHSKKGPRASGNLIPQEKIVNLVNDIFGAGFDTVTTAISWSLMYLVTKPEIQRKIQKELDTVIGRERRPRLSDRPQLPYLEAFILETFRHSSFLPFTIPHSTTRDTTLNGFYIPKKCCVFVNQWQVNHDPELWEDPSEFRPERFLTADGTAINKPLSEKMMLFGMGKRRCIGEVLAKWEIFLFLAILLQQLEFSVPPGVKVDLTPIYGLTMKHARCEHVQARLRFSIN

[6] = intravenous administration to rhesus monkeys; cited from earlier work
[7] = brain, read-out: Brain Concentration
[8] = brain, read-out: Free Brain Concentration
[9] = brain, 3 h, read-out: Brain Concentration
[10] = brain, 3 h, read-out: Free Brain Concentration
[11] = plasma, read-out: Plasma Concentration
[12] = SGF, pH 1.6, simulated gastric fluid

T1 sequence (P31424 21-1171 isoform P31424-2 limits assumed): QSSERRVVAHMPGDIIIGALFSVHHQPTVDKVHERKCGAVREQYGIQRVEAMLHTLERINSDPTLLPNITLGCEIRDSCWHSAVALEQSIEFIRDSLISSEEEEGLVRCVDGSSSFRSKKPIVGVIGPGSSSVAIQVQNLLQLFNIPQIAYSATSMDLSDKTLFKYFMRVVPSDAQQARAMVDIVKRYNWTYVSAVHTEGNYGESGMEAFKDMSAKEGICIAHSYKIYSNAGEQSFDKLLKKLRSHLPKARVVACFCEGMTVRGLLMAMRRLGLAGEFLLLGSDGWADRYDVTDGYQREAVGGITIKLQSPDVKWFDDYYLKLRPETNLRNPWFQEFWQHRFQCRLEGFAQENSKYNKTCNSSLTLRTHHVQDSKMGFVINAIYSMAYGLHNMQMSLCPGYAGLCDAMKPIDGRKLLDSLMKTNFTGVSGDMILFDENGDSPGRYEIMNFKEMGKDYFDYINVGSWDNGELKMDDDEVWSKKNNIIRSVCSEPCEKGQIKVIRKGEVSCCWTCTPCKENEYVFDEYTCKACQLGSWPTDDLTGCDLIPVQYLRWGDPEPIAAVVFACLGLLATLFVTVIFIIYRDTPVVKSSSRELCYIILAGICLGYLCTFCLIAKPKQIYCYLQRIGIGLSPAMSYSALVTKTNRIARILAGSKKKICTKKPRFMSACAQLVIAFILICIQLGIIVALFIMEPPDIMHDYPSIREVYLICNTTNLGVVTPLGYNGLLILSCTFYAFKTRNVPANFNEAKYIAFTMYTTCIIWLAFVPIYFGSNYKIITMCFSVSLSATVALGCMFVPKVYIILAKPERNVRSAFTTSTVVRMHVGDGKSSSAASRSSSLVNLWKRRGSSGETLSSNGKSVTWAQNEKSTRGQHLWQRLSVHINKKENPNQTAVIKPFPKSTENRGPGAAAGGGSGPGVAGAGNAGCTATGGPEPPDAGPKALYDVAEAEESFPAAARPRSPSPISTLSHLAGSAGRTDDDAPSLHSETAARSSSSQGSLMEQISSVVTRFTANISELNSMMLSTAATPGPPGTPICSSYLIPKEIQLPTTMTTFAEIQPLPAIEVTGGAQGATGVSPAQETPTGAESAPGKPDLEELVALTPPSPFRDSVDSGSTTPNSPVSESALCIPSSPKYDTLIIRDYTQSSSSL
Chain of mGluR4 (Q14833 33-912): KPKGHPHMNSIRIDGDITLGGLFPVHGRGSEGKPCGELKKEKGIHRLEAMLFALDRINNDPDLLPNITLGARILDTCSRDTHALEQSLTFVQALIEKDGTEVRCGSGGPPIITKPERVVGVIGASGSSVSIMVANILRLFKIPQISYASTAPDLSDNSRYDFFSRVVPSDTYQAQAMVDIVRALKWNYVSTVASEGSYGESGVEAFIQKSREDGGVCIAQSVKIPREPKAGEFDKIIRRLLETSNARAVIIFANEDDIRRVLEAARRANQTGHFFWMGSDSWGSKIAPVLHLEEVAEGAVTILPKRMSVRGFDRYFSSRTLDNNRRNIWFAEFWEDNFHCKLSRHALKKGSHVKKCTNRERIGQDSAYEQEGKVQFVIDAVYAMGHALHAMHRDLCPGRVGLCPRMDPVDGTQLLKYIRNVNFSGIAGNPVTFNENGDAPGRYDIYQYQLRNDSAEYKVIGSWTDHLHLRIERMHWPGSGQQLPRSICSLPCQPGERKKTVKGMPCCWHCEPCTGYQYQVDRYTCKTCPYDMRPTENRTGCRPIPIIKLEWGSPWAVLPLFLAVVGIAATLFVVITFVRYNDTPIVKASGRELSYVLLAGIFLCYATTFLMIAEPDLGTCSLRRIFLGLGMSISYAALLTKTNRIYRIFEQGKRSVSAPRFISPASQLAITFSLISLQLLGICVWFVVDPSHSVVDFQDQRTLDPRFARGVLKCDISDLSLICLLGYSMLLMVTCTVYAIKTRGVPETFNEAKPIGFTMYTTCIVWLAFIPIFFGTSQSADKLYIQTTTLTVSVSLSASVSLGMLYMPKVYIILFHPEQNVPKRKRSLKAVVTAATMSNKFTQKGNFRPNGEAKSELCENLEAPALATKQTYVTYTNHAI

Structure (SMILES): Cc1cccc(C#Cc2ccccc2)n1 [MPEP, 2-methyl-6-(phenylethynyl)pyridine]
effect in marble burying model [1]: effective in this model | activity at mGluR4 (mGluR4): positive allosteric modulator of mGluR4 | effect on NMDA receptor activity [2]: directly inhibit the N-methyl-D-aspartate (NMDA) receptor activity

Brain Concentration (nM) ([3]; 1 h): BLQ | Plasma Concentration (nM) ([3]; 1 h): BLQ | concentration at 0.25 h [3, 7]: 176 nM | concentration at 0.25 h [3, 8]: 2.6 nM | concentration at 0.5 h [3, 7]: 143 nM | concentration at 0.5 h [3, 8]: 2.1 nM | concentration at 3 h [3, 9]: 19.6 nM | concentration at 3 h [3, 10]: 0.3 nM | concentration at 0.25 h [3, 11]: 48.3 nM | concentration at 0.5 h [3, 11]: 30.7 nM | concentration at 3 h ([3]; plasma, 3 h, read-out: Plasma Concentration): 3.2 nM | Mouse BHB (%) (Mouse BHB): 98.5%
Structure (SMILES): Cc1cc(Oc2cncc(F)c2)cc(C(=O)Nc2ccc(F)cn2)n1 [drawing 270]

Structure (SMILES): CN1CC(=O)N=C1NC(=O)Nc1cccc(Cl)c1 [fenobam, 1-(3-chlorophenyl)-3-(1-methyl-4-oxo-4,5-dihydro-1H-imidazol-2-yl)urea]
effect in marble burying model [1]: effective in this model

Human PPB, % (Human PPB): 91.4% | Permeability (Permeability/efflux): Predicted high | efflux (Permeability/efflux): no efflux | solubility ([4]; FaSSIF, pH 6.5, fassif): 47 µg/mL (≈ 144 µM) | solubility [4, 12]: 205 µg/mL (≈ 630 µM) | mGluR5 mode of action (mGluR5): NAM
Structure (SMILES): Cc1cc(Oc2cncnc2)cc(C(=O)Nc2ccc(F)cn2)n1 [drawing 263, N-(5-fluoropyridin-2-yl)-6-methyl-4-(pyrimidin-5-yloxy)picolinamide]

Structure (SMILES): Cc1cc(Oc2cncnc2)cc(C(=O)Nc2ccc(F)cn2)n1 [Compound (2), N-(5-fluoropyridin-2-yl)-6-methyl-4-(pyrimidin-5-yloxy)picolinamide]
inhibition of marble burying vs. vehicle ([5]; 3 mg/kg PO 15 min prior to testing, 0.5% MC, 30 min burying): inhibition of marble burying was observed | inhibition of marble burying vs. vehicle ([5]; 10 mg/kg PO 15 min prior to testing, 0.5% MC, 30 min burying): inhibition of marble burying was observed | time spent in the open arms (elevated plus maze): statistically significant increase in the time spent in the open arms | total distance traveled (elevated plus maze): statistically significant beneficial effect

Plasma Concentration (nM) ([3]; 1 h): BLQ | Plasma Concentration (nM) ([3]; 3 h): BLQ | concentration at 0.25 h [3, 7]: 195 nM | concentration at 0.25 h [3, 8]: 15.2 nM | concentration at 0.5 h [3, 7]: 345 nM | concentration at 0.5 h [3, 8]: 26.9 nM | concentration at 1 h ([3]; brain, 1 h, read-out: Brain Concentration): 9.9 nM | concentration at 1 h ([3]; brain, 1 h, read-out: Free Brain Concentration): 0.8 nM | concentration at 3 h [3, 9]: 9.2 nM | concentration at 3 h [3, 10]: 0.7 nM | concentration at 0.25 h [3, 11]: 33.2 nM | concentration at 0.5 h [3, 11]: 77.4 nM | Mouse BHB (%) (Mouse BHB): 92.2%
Structure (SMILES): Cc1cc(Oc2cncnc2)cc(C(=O)Nc2ccc(F)cn2)n1 [drawing 269]

Human PPB, % (Human PPB): 98.5% | Permeability (Permeability/efflux): Predicted high | efflux (Permeability/efflux): no efflux | solubility ([4]; FaSSIF, pH 6.5, fassif): 7 µg/mL (≈ 20.4 µM) | solubility [4, 12]: 70 µg/mL (≈ 204 µM) | mGluR5 mode of action (mGluR5): NAM
Structure (SMILES): Cc1cc(Oc2cncc(F)c2)cc(C(=O)Nc2ccc(F)cn2)n1 [drawing 264, N-(5-fluoropyridin-2-yl)-4-((5-fluoropyridin-3-yl)oxy)-6-methylpicolinamide]

Structure (SMILES): Cc1nc(C#Cc2ccc(-c3cc(F)cc(C#N)c3)nc2)cs1 [STX107, reference compound]
inhibition of marble burying vs. vehicle ([5]; positive control, 10 mg/kg free base IP 60 min ptx): inhibition of marble burying was observed

Structure (SMILES): Cc1nc(C#Cc2cccnc2)cs1 [MTEP, 3-[(2-methyl-1,3-thiazol-4-yl)ethynyl]pyridine]
inhibition of cytochrome P450 1A2 (cytochrome P450 1A2): potent inhibitor of cytochrome P450 1A2 | clearance [6]: efficiently cleared

Source: patent publication US9085562B2, “6-alkyl-N-(pyridin-2-yl)-4-aryloxypicolinamide analogs as mGluR5 negative allosteric modulators and methods of making and using the same” (Vanderbilt University, priority 2011, dated 2015)
